Assay type in all cases: functional
Assay [1] deals with Drechslera. The assay can be described thus: Antifungal activity against Drechslera oryzae at 10 ppm after 168 hrs at 24 hrs intervals.
The test system of assay [2] is Drechslera. The assay can be described thus: Antifungal activity against Drechslera oryzae at 1 ppm after 168 hrs at 24 hrs intervals.
Assay [3] has as its system Fusarium oxysporum f. sp. vasinfectum. Nature of the assay: Antifungal activity against Fusarium oxysporum vasinfectum at 1 ppm after 144 hrs at 24 hrs intervals.
Assay [4] has the same test system. Nature of the assay: Antifungal activity against Fusarium oxysporum vasinfectum at 100 ppm after 144 hrs at 24 hrs intervals.
Assay [5] deals with Alternaria alternata. Nature of the assay: Antifungal activity against Alternaria tenuis at 1000 ppm after 168 hrs at 24 hrs intervals.
For assay [6], the system named is Fusarium oxysporum f. sp. vasinfectum. Nature of the assay: Antifungal activity against Fusarium oxysporum vasinfectum at 10 ppm after 144 hrs at 24 hrs intervals.
Assay [7] relates to Alternaria alternata. Nature of the assay: Antifungal activity against Alternaria tenuis at 10 ppm after 168 hrs at 24 hrs intervals.
In assay [8] the test system is Drechslera. Nature of the assay: Antifungal activity against Drechslera oryzae at 100 ppm after 168 hrs at 24 hrs intervals.
In assay [9] the test system is Fusarium oxysporum f. sp. vasinfectum. Nature of the assay: Antifungal activity against Fusarium oxysporum vasinfectum at 1000 ppm after 144 hrs at 24 hrs intervals.
Assay [10] relates to Alternaria alternata. The assay can be described thus: Antifungal activity against Alternaria tenuis at 100 ppm after 168 hrs at 24 hrs intervals.
Assay [11] relates to Drechslera. The assay can be described thus: Antifungal activity against Drechslera oryzae at 1000 ppm after 168 hrs at 24 hrs intervals.
In assay [12] the test system is Alternaria alternata. Nature of the assay: Antifungal activity against Alternaria tenuis at 1 ppm after 168 hrs at 24 hrs intervals.

In ChEMBL document CHEMBL1146447, “Evaluation of the antifungal activity of natural xanthones from Garcinia mangostana and their synthetic derivatives” (1997) one finds inhibition data, which are given here for ten compounds.

For `COc1c(OC(C)C)cc2oc3cc(OC(C)C)c(CC=C(C)C)c(O)c3c(=O)c2c1CC=C(C)C`, the inhibition at 10 ppm is 4% in assay [1], 1% in assay [6] and 2% in [7]. Further, the inhibition at 1 ppm in assay [2] is -1%; in [3], 3%; in assay [12], -10%. For the same compound, the figures for the inhibition at 100 ppm in [4], in assay [8] and in assay [10] were 4%, 1% and -1%, respectively. In addition, the values for the inhibition at 1000 ppm in [5], in assay [9] and in [11] were 1%, 3% and 9%, respectively.
Take `C=CCOc1cc2oc3cc(OCC=C)c(OC)c(CC=C(C)C)c3c(=O)c2c(O)c1CC=C(C)C`: the inhibition at 10 ppm is -18% in assay [1], 1% in [6] and -13% in assay [7]. For the same compound, the inhibition at 1 ppm in assay [2] is -19%; in [3] it was 0%; in [12], -22%. Further, the inhibition at 100 ppm is 4% in assay [4], -4% in [8] and 8% in [10]. Moreover, the inhibition at 1000 ppm was 42% in [5], 1% in assay [9] and -34% in assay [11].
`COc1c(O)cc2oc3cc4c(c(O)c3c(=O)c2c1CC=C(C)C)CCC(C)(C)O4`: the inhibition at 10 ppm in assay [1] came out at 45%; in [6] it was 8%; in assay [7], 15%. Besides, the inhibition at 1 ppm is 29% in [2], 4% in [3] and 11% in [12]. In addition, the inhibition at 100 ppm worked out at 19% in assay [4], 58% in assay [8] and 28% in assay [10]. The inhibition at 1000 ppm in assay [5] turned out to be 31%; in assay [9], 18%; in [11], 61%.
For `COc1c(OC(C)=O)cc2oc3cc(OC(C)=O)c(CC=C(C)C)c(O)c3c(=O)c2c1CC=C(C)C`, the inhibition at 10 ppm amounted to 51% in assay [1], 5% in [6] and 6% in assay [7]. Also, the inhibition at 1 ppm in [2] came to 11%; in assay [3], 6%; in assay [12], 8%. Moreover, the inhibition at 100 ppm turned out to be 4% in assay [4], 11% in [8] and 6% in [10]. Moreover, the results for the inhibition at 1000 ppm in assay [5], in assay [9] and in [11] were -6%, 3% and 14%, respectively.
As to `C=C(C)COc1cc2oc3cc(OCC(=C)C)c(OC)c(CC=C(C)C)c3c(=O)c2c(O)c1CC=C(C)C`, the inhibition at 10 ppm in [1] is -1%; in assay [6], 2%; in [7], -2%. In addition, the inhibition at 1 ppm in [2] is -1%; in assay [3], 1%; in assay [12], -8%. The results for the inhibition at 100 ppm in assay [4], in assay [8] and in assay [10] were 3%, -1% and 4%, respectively. Further, the inhibition at 1000 ppm in assay [5] is -1%; in [9], 9%; in assay [11] it was 17%.
For `CC1(C)CCc2c(cc3oc4cc(O)c5c(c4c(=O)c3c2O)CCC(C)(C)O5)O1` [BR-XANTHONE A], the inhibition at 10 ppm is 28% in assay [1], 0% in [6] and 18% in assay [7]. The results for the inhibition at 1 ppm in [2], in [3] and in assay [12] were 27%, 3% and 14%, respectively. Further, the figures for the inhibition at 100 ppm in [4], in assay [8] and in assay [10] were 0%, 31% and 15%, respectively. Besides, the inhibition at 1000 ppm was found to be 14% in [5], 3% in assay [9] and 36% in [11].
As for `COc1c(O)cc2oc3cc(O)c(CC=C(C)C)c(O)c3c(=O)c2c1CCC(C)(C)O` [GARCINONE D], the inhibition at 10 ppm in assay [1] worked out at 30%; in assay [6] it was 10%; in assay [7], 2%. Moreover, the inhibition at 1 ppm in assay [2] was 27%; in assay [3], -1%; in assay [12], -7%. For the same compound, the inhibition at 100 ppm is 12% in [4], 43% in assay [8] and -11% in [10]. Further, the figures for the inhibition at 1000 ppm in assay [5], in assay [9] and in [11] were 26%, 41% and 64%, respectively.
Turning to `CC(C)=CCc1c(O)c(CC=C(C)C)c2oc3c(O)ccc(O)c3c(=O)c2c1O` [GARTANIN], the inhibition at 10 ppm is 54% in assay [1], 4% in assay [6] and 20% in assay [7]. Also, the inhibition at 1 ppm in assay [2] came to 18%; in assay [3], 3%; in assay [12], 4%. The inhibition at 100 ppm turned out to be 9% in [4], 75% in assay [8] and 22% in [10]. For the same compound, the figures for the inhibition at 1000 ppm in assay [5], in [9] and in [11] were 29%, 12% and 71%, respectively.
Turning to `COc1c(O)cc2oc3cc(O)c(CC=C(C)C)c(O)c3c(=O)c2c1CC=C(C)C` [MANGOSTIN], the inhibition at 10 ppm is 51% in assay [1], 22% in [6] and 38% in assay [7]. The values for the inhibition at 1 ppm in assay [2], in assay [3] and in [12] were 55%, 11% and 17%, respectively. Also, the values for the inhibition at 100 ppm in [4], in [8] and in assay [10] were 29%, 54% and 39%, respectively. Further, the inhibition at 1000 ppm in [5] was determined as 41%; in assay [9], 24%; in assay [11] it was 53%.
For `O=c1c2ccccc2oc2ccccc12` [XANTHONE], the inhibition at 10 ppm in assay [1] stood at 29%; in assay [6], 8%; in [7], 5%. The inhibition at 1 ppm is 19% in assay [2], -2% in [3] and -43% in assay [12]. The results for the inhibition at 100 ppm in assay [4], in assay [8] and in assay [10] were 1%, 34% and -6%, respectively. For the same compound, the results for the inhibition at 1000 ppm in assay [5], in assay [9] and in assay [11] were -14%, 6% and 3%, respectively.

The term inhibition denotes the relative decrease from the control value, in per cent.
